{
  "source": "patent US10160785B2",
  "about": "“Antimicrobial peptides and their use for the treatment of topical infections” (priority 2015, dated 2018)",
  "key": {"Bacillus subtilis": {"system": "Bacillus subtilis", "details": "Bacillus subtilis; 37° C., 20 h", "how_it_was_run": "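MIC broth microdilution, LB, ~10^5 CFU/well, peptide 0.1–100 μmol.l^−1 (twofold series). 37 °C, 20 h, continuous shaking; A540 every 15 min.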"}, "[1]": {"system": "P. aeruginosa (Liberec) biofilm", "assay": "Bacterial biofilm, remaining metabolic activity (MTT)", "assay_type": "cell-based, Pseudomonas aeruginosa", "details": "remaining metabolic activity of biofilm, 20 h", "how_it_was_run": "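Biofilms of S. aureus or P. aeruginosa (Liberec) were grown 24 h at 37° C with shaking in BHI plus 1% glucose from ca. 10^8 CFU/ml inocula. After washing, biofilms were exposed 20 h to peptides at 1–128 μmol.l^−1. Surviving metabolic activity was measured by MTT (40 min, formazan in DMSO, A540) as percent of untreated biofilm, blank-corrected.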"}},
  "note": "Where a SMILES comes first, the peptide text is derived from it.",
  "data": [
    {"smiles": "CCCC[C@H](NC(=O)[C@H](CC(C)C)NC(=O)[C@H](CO)NC(=O)[C@H](CO)NC(=O)[C@H](CCCC)NC(=O)[C@@H](NC(=O)CN)[C@@H](C)CC)C(=O)N[C@@H](CCCCN)C(=O)N[C@@H](CCCCN)C(=O)N[C@@H](CC(C)C)C(=O)N[C@@H](CCCCN)C(=O)N[C@@H](CCCCN)C(=O)N[C@H](C(=O)N[C@H](C(=O)N[C@@H](C)C(=O)N[C@@H](CCCCN)C(N)=O)[C@@H](C)CC)[C@@H](C)CC", "note": "[V] (HELM PEPTIDE1{G.I.[Nle].S.S.L.[Nle].K.K.L.K.K.I.I.A.K.[am]}$$$$V2.0)", "values": [
      {"measurement": "Antimicrobial activity MIC B. s.", "setting": "Bacillus subtilis", "result": 3.5, "unit": "µM"},
      {"measurement": "Metabolic activity (%) P. aeruginosa (Liberec)", "setting": "[1]; peptide concentration 8 μmol · l^−1", "result": 65.5, "unit": "%"},
      {"measurement": "Metabolic activity (%) P. aeruginosa (Liberec)", "setting": "[1]; peptide concentration 16 μmol · l^−1", "result": 59.8, "unit": "%"},
      {"measurement": "Metabolic activity (%) P. aeruginosa (Liberec)", "setting": "[1]; peptide concentration 32 μmol · l^−1", "result": 64.9, "unit": "%"},
      {"measurement": "Metabolic activity (%) P. aeruginosa (Liberec)", "setting": "[1]; peptide concentration 64 μmol · l^−1", "result": 61.4, "unit": "%"},
      {"measurement": "Metabolic activity (%) P. aeruginosa (Liberec)", "setting": "[1]; peptide concentration 128 μmol · l^−1", "result": 49.3, "unit": "%"}
    ]}
  ]
}
